Laboratory results: PMC9197168, “Structural Characterization of Mycobacterium abscessus Phosphopantetheine Adenylyl Transferase Ligand Interactions: Implications for Fragment-Based Drug Design” (Frontiers in Molecular Biosciences, 2022)
Like-named read-outs stand apart in the source and are kept apart here.

Key:
Mab PPAT = Mab PPAT (Mycobacteroides abscessus, UniProt B1MDL6); assay: Isothermal titration calorimetry (ITC) on Mab PPAT; assay type: binding, Mycobacterium abscessus; details: for Kd: ITC
Mab PPAT, sequence (B1MDL6 whole entry, the tested form may be a part): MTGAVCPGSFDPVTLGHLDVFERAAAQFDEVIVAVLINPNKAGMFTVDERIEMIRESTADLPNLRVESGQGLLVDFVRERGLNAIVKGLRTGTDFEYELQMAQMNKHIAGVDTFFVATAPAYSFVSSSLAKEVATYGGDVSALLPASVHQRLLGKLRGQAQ
Description: ITC experiments were done using an ITC200 (MicroCal) instrument. The Mab PPAT protein for ITC was dialysed overnight at 4°C in storage buffer (50 mM Tris-HCl pH 8.0, 150 mM NaCl) the same buffer was used for preparing the ligand solutions. The protein and ligands/fragments were used at a concentration of 72 μM and 1–5 mM, respectively. ITC recorded for ATP was done in buffer: 50 mM Hepes pH 8.0, 150 mM NaCl, 5 mM MgCl2, at Mab PPAT concentration of 200 uM and 3 mM ATP. Buffer components and other constituents like DMSO were kept constant in both protein and ligand solutions. Ligands to buffer titrations were subtracted in all cases and experiments were repeated at least twice. Data were analysed using the Origin software (OriginLab, Northampton, MA, United States).

[1] = system: M. abscessus ATCC19977 whole-cell cultures; assay: Whole-cell luciferase-reporter based luminescence assay; design: species or system Mycobacterium abscessus; details: up to a concentration of 200 µM; in comparison to positive control Amikacin; data not shown
Mtb PPAT = biological target: Mtb PPAT; design: method as in El Bakali et al., 2020; details: ref El Bakali et al., 2020; cited from earlier work
M. abscessus PPAT = M. abscessus PPAT (Mycobacteroides abscessus, UniProt B1MDL6); assay type: binding, Mycobacterium abscessus; details: Table 1; 10 μM PPAT, 5 mM compound, 5% DMSO
M. abscessus PPAT, sequence (B1MDL6 whole entry): as the sequence (B1MDL6 whole entry, the tested form may be a part) above

[2] = Mab PPAT 72 μM, 50 mM Tris-HCl pH 8.0, 150 mM NaCl, read-out: Kd (Mab PPAT)
[3] = Mab PPAT, 50 mM Tris-HCl pH 8.0, 150 mM NaCl, read-out: Kd

Row | SMILES | ΔΤm (M. abscessus PPAT) | further results
1 | Nc1ncnc2c1ncn2[C@@H]1O[C@H](COP(=O)(O)OP(=O)(O)OP(=O)(O)O)[C@@H](O)[C@H]1O [ATP, Adenosine 5′ triphosphate, reference compound] |  | Kd (Mab PPAT; 50 mM Hepes pH 8.0, 150 mM NaCl, 5 mM MgCl2, Mab PPAT 200 uM, 3 mM ATP, read-out: Kd): 20.1 ± 3.3 µM
2 | CC(C)(COP(=O)(O)OP(=O)(O)OC[C@H]1O[C@@H](n2cnc3c(N)ncnc32)[C@H](O)[C@@H]1OP(=O)(O)O)[C@@H](O)C(=O)NCCC(=O)NCCS [Coenzyme A, reference compound] |  | Kd (Mab PPAT; [2]): 8.2 ± 1.1 µM
3 | O=C(O)c1cnn(-c2ccccc2)c1OCCCc1c[nH]c2ccccc12 [Compound 20] |  | cellular activity on whole-cell cultures [1]: low cellular activity; Kd (Mab PPAT; [2]): 3.2 ± 0.8 µM; binding affinity on Mab PPAT relative to that on Mtb PPAT (Mab PPAT; Mab PPAT versus Mtb PPAT (Kd 15 ± 4 µM)): ~5 fold; affinity relative to affinity of Mab PPAT for the substrate ATP (Mab PPAT; Mab PPAT, compound versus ATP): ≈ 7 fold; Kd (Mtb PPAT): 15 ± 4 µM
4 | Cc1c(C(=O)O)cnn1-c1ccccc1 [Fragment 1] | +6 °C | Kd (Mab PPAT; [3]): 540 ± 20 µM
5 | O=C(O)c1ccc2[nH]nc(Br)c2c1 [Fragment 2] | +12.5 °C | 
6 | Cc1cn(CCC(=O)O)c2ccccc12 [Fragment 3] | +0.5 °C | 
7 | O=C(O)C(O)c1cccc(Oc2ccccc2)c1 (stereo not shown) [Fragment 4] | +2.5 °C | 
8 | O=C(O)CCc1c[nH]c2ccccc12 [Fragment 5] | +3.5 °C | Kd (Mab PPAT; [3]): 3200 ± 20 µM
9 | O=C(O)c1ccccc1C(=O)c1ccc(Cl)c([N+](=O)[O-])c1 [Fragment 6] | +4.5 °C | 
10 | O=C(O)c1cc2cc(F)ccc2[nH]1 [Fragment 7] | +3.5 °C | 
11 | O=C(O)c1ccc2cc(F)ccc2c1 [Fragment 8] | +2.9 °C | 
12 | O=C(O)Cc1ccc2ccccc2c1 [Fragment 9] | +2.3 °C | 
13 | Cc1ccc(C(=O)O)c(C(=O)O)n1 [Fragment 10] | +2.0 °C | 
14 | O=C(O)c1cc2ccccc2cc1O [Fragment 11] | +2.0 °C | 
15 | O=C(O)C(O)Cc1c[nH]c2ccccc12 (stereo not shown) [Fragment 12] | +1.5 °C | 
16 | N#Cc1ccc(Cl)cc1N [Fragment 13] | +1.5 °C | 
17 | O=C(O)CCn1ccc2ccccc21 [Fragment 14] | +1 °C | 
18 | Cc1ccc2oc(=O)cc(O)c2c1 [Fragment 15] | +0.5 °C | 
19 | O=C(O)Cn1ccc2ccccc21 [Fragment 16] | -0.5 °C | 
